Test results from PubChem BioAssay (NCI).
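In this assay, cells in 96-well plates receive the compound at five concentrations for 48 hours. Endpoints are linearly interpolated between the surrounding concentrations. TGI is the concentration that stops growth completely.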

Key:
Experiment in all cases: inhibition of tumour cell growth, NCI panel, 48 h
RXF-631 renal = test system: RXF-631 renal
LXFL 529 NSCLC = test system: LXFL 529 NSCLC
M19-MEL melanoma = test system: M19-MEL melanoma
KM20L2 colon = test system: KM20L2 colon
HOP-18 NSCLC = test system: HOP-18 NSCLC
DMS 273 small cell lung = test system: DMS 273 small cell lung
XF 498 CNS = test system: XF 498 CNS
DMS 114 small cell lung = test system: DMS 114 small cell lung
SNB-78 CNS = test system: SNB-78 CNS

Compound | TGI (RXF-631 renal) [µM] | TGI (LXFL 529 NSCLC) [µM] | TGI (M19-MEL melanoma) [µM] | TGI (KM20L2 colon) [µM] | TGI (HOP-18 NSCLC) [µM] | TGI (DMS 273 small cell lung) [µM] | TGI (XF 498 CNS) [µM] | TGI (DMS 114 small cell lung) [µM] | TGI (SNB-78 CNS) [µM]
CN1CCc2ccccc2C(C(=O)c2ccc3c(c2)OCO3)C1=O (stereo not drawn) | > 100 | > 100 | > 100 | > 100 | > 100 | > 100 | > 100 | > 100 | –
CCCNCCCCC(NC(C)=O)C(=O)NCc1ccccc1 (stereo not drawn) | > 100 | > 100 | > 100 | > 100 | – | > 100 | > 100 | > 100 | > 100
Cc1ccc(C(=O)Oc2ccccc2)cc1N=NN(C)C | – | > 100 | > 100 | > 100 | – | > 100 | – | – | > 100
O=[N+]([O-])c1cccc(Nc2nc(Cl)nc(Cl)n2)c1 | > 100 | > 100 | > 100 | > 100 | – | > 100 | > 100 | – | > 100
COC(=O)/C=C(\C)CCC1SC1(C)C (stereo not drawn) | – | > 100 | > 100 | > 100 | > 100 | > 100 | > 100 | > 100 | > 100
Cc1ccc(-c2cc(-c3ccccc3)c(C#N)c(=O)[nH]2)cc1 | > 100 | > 100 | > 100 | > 100 | > 100 | > 100 | – | > 100 | > 100
COc1ccc(C2Cc3cc(OC)c(OC)c(OC)c3C2)cc1 (stereo not drawn) | – | – | > 100 | > 100 | > 100 | > 100 | 54.5 | > 100 | > 100
COc1cc([C@@H]2c3cc4c(cc3[C@@H](NCc3cccc(C#N)c3)C3COC(=O)[C@@H]32)OCO4)cc(OC)c1O (stereo partly drawn) | 4.64 | > 100 | 50.3 | 4.63 | > 100 | 5.89 | – | 9.19 | –
C=C1C2=C(CCCC2)C(=O)OC12CCCCC2 | > 100 | > 100 | > 100 | > 100 | > 100 | > 100 | > 100 | > 100 | –
CCCc1cc(OC(=O)c2c(O)cc(OC)cc2CCC)cc(O)c1C(=O)O | 63.8 | 62.9 | > 100 | > 100 | – | 95.7 | 74.4 | 56 | 64.1
CCCCCCCCC(O)c1ccc(/C=C\C(O)CCCC(=O)O)s1 (stereo not drawn) | – | > 100 | > 100 | > 100 | > 100 | > 100 | > 100 | > 100 | > 100
COc1ccc2[nH]c3c(c2c1)[C@H]1CCC(C(C)(C)C)C[C@H]1[C@H]1C(=O)N(c2ccccc2)C(=O)[C@@H]31 (stereo partly drawn) | 57.5 | > 100 | > 94.2 | > 100 | 99.6 | > 100 | 31 | > 76.7 | –
CCCCOC/N=C(/N)NC#N | > 100 | > 100 | – | > 100 | > 100 | > 100 | > 100 | > 100 | > 100
